Measurements as given in publication PMC10686834, “Targeting myeloid chemotaxis to reverse prostate cancer therapy resistance” (Nature, 2023).

Experiments:
[1] = system: CD11b+HLA-DRloCD15+CD14− myeloid cells; test: Hyperplex IF of paired pre- and on-treatment mCRPC biopsies: intratumour immune cell density; assay type: in vivo, human
Procedure: Specific pharmacokinetic collection time points are listed in the study protocol. Pharmacokinetic parameters were calculated using non-compartmental analysis (Phoenix v.8.1, Certara). Fresh tumour needle core biopsies from matched disease sites (lymph node, bone and soft tissue) were collected at baseline (within 1 week of treatment commencement) and approximately 2 weeks after starting AZD5069 in patients when this was deemed safe and feasible. Tumour biopsies were obtained from 18 patients under computerized tomography or ultrasound guidance by an experienced interventional radiologist (N.T.). […] One patient had only a baseline tumour biopsy. Two patients underwent on-treatment biopsies after 4 weeks. Immediately after biopsy, tumour samples were immersed in 10% neutral-buffered formalin for 24 hours. Samples were processed through paraffin wax for histologic examination. […] Baseline FFPE samples were analysed by IHC, and pre- and post-treatment FFPE biopsies were analysed by IF and targeted RNA profiling using HTG EdgeSeq. […]
The hyperplex IF protocol template was generated using the COMET Control Software (v.0.70.0.1, Lunaphore Technologies), and reagents were loaded onto the device to carry out the sequential IF (seqIF) protocol. […] Nuclear signal was detected with DAPI (No. 62248, dilution 1:1,000, Thermo Fisher Scientific) by dynamic incubation of 2 min. […]

[2] = system: AR activity and AR-V7 signatures; test: RNA profiling (HTG EdgeSeq) of paired FFPE tumour biopsies: AR activity and AR-V7 signatures; assay type: in vivo, human; conditions: paired biopsies with decreased myeloid cell density (seven pairs)
Procedure: RNA profiling of FFPE tumour biopsies collected before and after starting AZD5069 was carried out by HTG EdgeSeq (HTG Molecular Diagnostics) using the HTG human transcriptome panel containing 19,616 nuclease protection probes (NPPs), including 19,398 gene target-specific 50-nucleotide probes, 100 negative control probes, 92 probes for RNA controls established by the External RNA Control Consortium, 22 probes that measure gDNA and 4 positive control probes. The assay was carried out with a minimum of 11 mm^2 of FFPE tumour micro-dissected sections. The sections were lysed according to the manufacturer’s instructions, and added to a 96-well plate on the HTG EdgeSeq Processor (HTG Molecular Diagnostics) on which a quantitative nuclease protection assay was carried out. The addition of DNA nuclease protection probes (NPPs) was automated and they were allowed to hybridize for 16 hours to the target mRNAs. The excess non-hybridized DNA probes and non-hybridized mRNA were removed by S1 digestion leaving only NPPs hybridized to mRNA. […] After clean-up and quantification by quantitative PCR using the kit KAPA Library Quantification Kit Illumina platforms, the libraries were pooled and sequenced on the NextSeq 500 using a High Throughput 75-cycle v.2.5 kit (Illumina). […] Data were analysed using the HTG EdgeSeq Reveal analysis software. […]

[3] = system: LPS induced pulmonary neutrophilia; set-up: method as in AZD5069 Investigator Brochure (IB); conditions: rat; ref AZD5069 Investigator Brochure (IB); cited from earlier work
CYP2D6 = system: CYP2D6; set-up: method as in AZD5069 Investigator Brochure (IB); conditions: at concentrations of up to 100 μmol/L; ref AZD5069 Investigator Brochure (IB); cited from earlier work
rat = conditions: in vivo; cited from earlier work

C[C@@H](Oc1cc(NS(=O)(=O)N2CCC2)nc(SCc2cccc(F)c2F)n1)[C@@H](O)CO [AZD5069]
density of other immune cells in CRPC biopsies [1]: did not significantly alter the density of other immune cells
density of CD11b+HLA-DRloCD15+CD14− myeloid cells in CRPC biopsies ([1]; most patients treated with AZD5069 >40 mg BD, approximately 2 weeks after starting treatment): reduced the density
AR activity and AR-V7 mRNA signatures in tumour biopsies [2]: downregulation of AR activity and AR-V7 signatures
effect on LPS induced pulmonary neutrophilia [3]: dose dependent inhibition
inhibition of CYP2D6 (CYP2D6): not an inhibitor
tolerated single doses (rat): up to 600 mg/kg
